Reference: ChEMBL document CHEMBL1201862, “PubChem BioAssay data set” (2004)
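How tested: cells in 96-well plates exposed to compound for 48 hours at five concentrations. GI50 = concentration required for 50% inhibition of growth.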 Calls of active or inactive are those of the source. No stated cut-off is given here; in the data, active = GI50 up to about 1.1 µM and inactive = higher.

Legend:
Assay in all cases: DTP human tumour cell line panel, 48 h
OVCAR-8 = tested on: OVCAR-8
T47D = tested on: T47D
786-0 = tested on: 786-0
M14 = tested on: M14
HOP-92 = tested on: HOP-92
CCRF-CEM = tested on: CCRF-CEM
PC-3 = tested on: PC-3
OVCAR-3 = tested on: OVCAR-3
MDA-N = tested on: MDA-N
NCI/ADR-RES = tested on: NCI/ADR-RES
HT-29 = tested on: HT-29
OVCAR-4 = tested on: OVCAR-4
UACC-62 = tested on: UACC-62
MCF7 = tested on: MCF7
COLO 205 = tested on: COLO 205
Hs-578T = tested on: Hs-578T
SR = tested on: SR

Measured: GI50

CSc1nc(Cl)c(Br)c(Nc2cnc(O)nc2O)n1
inactive: OVCAR-8 15.6 µM | T47D 13.8 µM | 786-0 13.4 µM | M14 27.9 µM | HOP-92 13.1 µM | CCRF-CEM 17.7 µM | PC-3 18.8 µM | OVCAR-3 14.6 µM | MDA-N 23 µM | NCI/ADR-RES 19.7 µM | HT-29 15.8 µM | OVCAR-4 15.6 µM | UACC-62 15.2 µM | MCF7 38 µM | COLO 205 16.8 µM

O=C(CC(C(=O)c1ccco1)c1ccsc1)c1ccco1 (stereo unspecified)
inactive: OVCAR-8 > 100 µM | T47D 17.3 µM | 786-0 > 100 µM | M14 > 100 µM | HOP-92 > 100 µM | Hs-578T > 100 µM | CCRF-CEM > 100 µM | OVCAR-3 91.2 µM | MDA-N > 100 µM | NCI/ADR-RES 38.6 µM | SR 67.8 µM | HT-29 > 100 µM | OVCAR-4 75.2 µM | UACC-62 90.4 µM | MCF7 > 100 µM | COLO 205 > 100 µM

N#Cc1c(O)cc(=O)n2c1[nH]c1ccccc12
inactive: OVCAR-8 > 100 µM | 786-0 > 100 µM | M14 > 100 µM | HOP-92 > 100 µM | Hs-578T > 100 µM | CCRF-CEM > 100 µM | PC-3 > 100 µM | OVCAR-3 > 100 µM | MDA-N > 100 µM | NCI/ADR-RES > 100 µM | SR > 100 µM | HT-29 > 100 µM | OVCAR-4 > 100 µM | UACC-62 > 100 µM | MCF7 > 100 µM | COLO 205 > 100 µM

O=c1[nH]c(=O)n(COCCOCc2ccccc2)cc1Nc1ccccc1
inactive: OVCAR-8 > 100 µM | T47D 24.2 µM | 786-0 60.1 µM | M14 > 100 µM | HOP-92 > 100 µM | CCRF-CEM > 100 µM | PC-3 > 100 µM | OVCAR-3 > 100 µM | MDA-N > 100 µM | NCI/ADR-RES > 100 µM | SR > 100 µM | HT-29 > 100 µM | OVCAR-4 > 100 µM | UACC-62 > 100 µM | MCF7 > 100 µM | COLO 205 > 100 µM

CCNC(=O)c1cc(/C=C/c2ccc([N+](=O)[O-])o2)nc2ccccc12
inactive: OVCAR-8 15.8 µM | T47D > 100 µM | 786-0 11.3 µM | M14 2.34 µM | HOP-92 > 22.4 µM | Hs-578T 63.7 µM | CCRF-CEM 3.18 µM | PC-3 > 100 µM | OVCAR-3 > 62.4 µM | NCI/ADR-RES 51.4 µM | SR 1.38 µM | HT-29 6.82 µM | OVCAR-4 > 100 µM | UACC-62 32.1 µM | MCF7 6.4 µM | COLO 205 3.8 µM

C=CCN1CCC(O)(c2cc(C(=O)OCC)[nH]c2-c2cc(C)no2)C1 (stereo unspecified)
inactive: OVCAR-8 > 100 µM | T47D > 100 µM | 786-0 > 100 µM | M14 > 100 µM | HOP-92 > 100 µM | CCRF-CEM > 100 µM | PC-3 > 100 µM | OVCAR-3 > 100 µM | MDA-N > 100 µM | NCI/ADR-RES > 100 µM | HT-29 > 100 µM | OVCAR-4 > 100 µM | UACC-62 > 100 µM | COLO 205 > 100 µM

CC(C)=CCC12Cc3ccc(O)cc3C(C(C)CN1)C2C (stereo unspecified)
inactive: OVCAR-8 > 100 µM | T47D > 100 µM | 786-0 > 100 µM | M14 21 µM | HOP-92 44 µM | Hs-578T 67.6 µM | CCRF-CEM 46.8 µM | NCI/ADR-RES > 100 µM | SR 39.2 µM | HT-29 44.6 µM | OVCAR-4 > 100 µM | UACC-62 > 100 µM | MCF7 81.3 µM | COLO 205 36.9 µM

CC(=O)NC1C(OCc2ccccc2)OC(CO)C(O)C1OCC(=O)N[C@@H](C)C(=O)N[C@H](CCC(=O)NCCNc1ccc([N+](=O)[O-])c2[nH]c3ccccc3c(=O)c12)C(N)=O (stereo partly specified)
inactive: OVCAR-8 18.2 µM | T47D 57 µM | 786-0 18.7 µM | M14 60.3 µM | HOP-92 21.6 µM | Hs-578T 71.9 µM | CCRF-CEM 67.6 µM | OVCAR-3 36.7 µM | MDA-N 27.9 µM | NCI/ADR-RES 21.6 µM | SR 58.7 µM | HT-29 19.4 µM | OVCAR-4 23.3 µM | UACC-62 18.7 µM | COLO 205 15.9 µM

Cc1cn(C2CC(OC(c3ccccc3)(c3ccccc3)c3ccccc3)C(COC(c3ccccc3)(c3ccccc3)c3ccccc3)O2)c(=O)[nH]c1=O (stereo unspecified)
inactive: OVCAR-8 > 100 µM | 786-0 > 100 µM | M14 > 100 µM | HOP-92 21.1 µM | Hs-578T 38.1 µM | CCRF-CEM > 100 µM | PC-3 16 µM | OVCAR-3 > 100 µM | MDA-N 31.8 µM | NCI/ADR-RES > 100 µM | SR > 100 µM | HT-29 61 µM | OVCAR-4 > 100 µM | UACC-62 > 100 µM | MCF7 19 µM | COLO 205 > 100 µM

COc1cc(C2c3cccc4cccc(c34)C3CCC(=O)N32)cc(OC)c1O (stereo unspecified)
inactive: OVCAR-8 > 50 µM | T47D > 50 µM | 786-0 > 50 µM | M14 > 50 µM | HOP-92 > 50 µM | CCRF-CEM > 50 µM | PC-3 > 50 µM | OVCAR-3 > 50 µM | MDA-N > 50 µM | NCI/ADR-RES > 50 µM | SR > 50 µM | HT-29 > 50 µM | OVCAR-4 > 50 µM | UACC-62 > 50 µM | MCF7 > 50 µM | COLO 205 > 50 µM

CC(C)(C)OC(=O)N(CCCCNC(=O)OCc1ccccc1)CCCNC(=O)OCc1ccccc1
inactive: OVCAR-8 32.4 µM | T47D 5.19 µM | 786-0 91 µM | M14 51.8 µM | HOP-92 23.4 µM | Hs-578T > 100 µM | CCRF-CEM 16.3 µM | PC-3 10.7 µM | OVCAR-3 > 100 µM | NCI/ADR-RES 8.59 µM | SR 9.68 µM | HT-29 18.5 µM | OVCAR-4 33 µM | UACC-62 87.9 µM | MCF7 33.3 µM | COLO 205 16.5 µM

O=C(O)CCC(=O)OC1N=C(c2ccccc2Cl)c2cc([N+](=O)[O-])ccc2NC1=O (stereo unspecified)
inactive: OVCAR-8 39 µM | T47D 81.3 µM | 786-0 42.1 µM | M14 > 100 µM | HOP-92 69.2 µM | Hs-578T > 100 µM | CCRF-CEM 26.3 µM | PC-3 23.6 µM | OVCAR-3 32.7 µM | MDA-N > 100 µM | NCI/ADR-RES > 100 µM | HT-29 > 100 µM | OVCAR-4 42.2 µM | UACC-62 > 100 µM | MCF7 33 µM

CC1(C)CCCCCC(C)(CCCO)C1=O (stereo unspecified)
inactive: OVCAR-8 > 100 µM | T47D > 100 µM | 786-0 > 100 µM | M14 > 100 µM | HOP-92 > 100 µM | Hs-578T > 100 µM | CCRF-CEM > 100 µM | PC-3 > 100 µM | OVCAR-3 > 100 µM | NCI/ADR-RES > 100 µM | SR > 100 µM | HT-29 > 100 µM | OVCAR-4 > 100 µM | UACC-62 > 100 µM | MCF7 > 100 µM | COLO 205 > 100 µM

COc1ccc(-c2nc3ccccc3s2)cc1OC
inactive: OVCAR-8 63.4 µM | 786-0 44.6 µM | M14 94.4 µM | HOP-92 6.59 µM | Hs-578T 13.4 µM | CCRF-CEM 76.9 µM | PC-3 34.9 µM | MDA-N 64.4 µM | NCI/ADR-RES 42.5 µM | SR > 100 µM | HT-29 31.6 µM | OVCAR-4 46.6 µM | UACC-62 37.4 µM | COLO 205 21.9 µM

Cc1ccc(C(=O)Nc2ccc(CP(=O)(O)O)cc2)cc1NC(=O)c1cccc(NC(=O)Nc2cccc(C(=O)Nc3cc(C(=O)Nc4ccc(CP(=O)(O)O)cc4)ccc3C)c2)c1
inactive: OVCAR-8 > 100 µM | T47D > 100 µM | 786-0 > 100 µM | M14 > 100 µM | Hs-578T > 100 µM | CCRF-CEM > 100 µM | PC-3 > 100 µM | OVCAR-3 > 100 µM | MDA-N > 100 µM | NCI/ADR-RES > 100 µM | HT-29 > 100 µM | OVCAR-4 > 100 µM | UACC-62 > 100 µM | MCF7 > 100 µM | COLO 205 > 100 µM

C=C1C(OC2O[C@@H]3O[C@@]4(C)CC[C@H]5[C@H](C)CC[C@@H](C2=C)[C@@]35O4)O[C@@H]2O[C@@]3(C)CC[C@H]4[C@H](C)CC[C@@H]1[C@@]24O3 (stereo partly specified)
inactive: T47D > 50 µM | 786-0 > 50 µM | M14 > 50 µM | HOP-92 > 50 µM | Hs-578T > 50 µM | CCRF-CEM > 50 µM | PC-3 > 50 µM | OVCAR-3 > 50 µM | MDA-N > 50 µM | SR > 50 µM | HT-29 > 50 µM | OVCAR-4 > 50 µM | UACC-62 > 50 µM | MCF7 > 50 µM | COLO 205 > 50 µM

Nc1ccc(/N=N/c2ccccc2)cc1
inactive: OVCAR-8 28 µM | 786-0 64.9 µM | M14 44.4 µM | HOP-92 30.6 µM | Hs-578T > 100 µM | CCRF-CEM 6.41 µM | PC-3 56.8 µM | OVCAR-3 18.8 µM | MDA-N 60.3 µM | NCI/ADR-RES 34.8 µM | SR 19.3 µM | HT-29 28.6 µM | OVCAR-4 > 100 µM | UACC-62 27.4 µM | MCF7 30.5 µM | COLO 205 46.1 µM
